The values that follow come from patent publication US9371336B2, “Compounds for treating spinal muscular atrophy” (PTC Therapeutics Inc., priority 2012, dated 2016).

The test deals with SMN2 full length and Δ7 mRNA. Nature of the test: Endogenous SMN2 mRNA RT-qPCR splicing assay in cultured cells (GM03813 SMA patient cells). The format is cell-based, human. The following applies: Type 1 SMA patient fibroblasts GM03813, increasing concentrations, 24 hr, RT-qPCR (FIG. 4). How it is done: The reverse transcription-quantitative PCR-based (RT-qPCR) assay is used to quantify the levels of the SMN2 full length and Δ7 mRNA in primary cells and cell lines containing the SMN2 gene treated with a test compound.
GM03813 SMA patient cells (5,000 cells/well) are seeded in 200 μL, of cell culture medium (DMEM plus 10% FBS) in 96-well flat-bottom plates and the plate is immediately swirled to ensure proper dispersal of cells, forming an even monolayer of cells. Cells are allowed to attach for at least 4-6 hrs. Test compounds are serially diluted 3.16-fold in 100% DMSO to generate a 7-point concentration curve. A solution of test compound (1 μL, 200× in DMSO) is added to each test well and 1 μL, DMSO is added to each control well. The plate is incubated for 24 hrs in a cell culture incubator (37° C., 5% CO2, 100% relative humidity). The cells are then lysed in Cells-To-Ct lysis buffer and the lysate is stored at 80° C.
SMN2-specific spliced products and GAPDH mRNA are identified using the following primers and probes in Table 5. Primer SMN FL Forward B (SEQ ID NO. 7) hybridizes to a nucleotide sequence in exon 7 (nucleotide 32 to nucleotide 54) and exon 8 (nucleotide 1 to nucleotide 4), primer SMN Δ7 Forward B (SEQ ID NO. 8) hybridizes to a nucleotide sequence in exon 6 (nucleotide 87 to nucleotide 111) and exon 8 (nucleotide 1 to nucleotide 3), primer SMN Reverse B (SEQ ID NO. 9) hybridizes to a nucleotide sequence in exon 8 (nucleotide 39 to nucleotide 62), probe SMN Probe B (SEQ ID NO. 10) hybridizes to a nucleotide sequence in exon 8 (nucleotide 7 to nucleotide 36). These primers and probes hybridize to nucleotide sequences common to human SMN1 and SMN2 mRNA. Since the SMA patient cells used in Example 3 contain only the SMN2 gene, RT-qPCR can quantify only SMN2 full-length and Δ7 mRNA.
The SMN forward and reverse primers are used at final concentrations of 0.4 μM. The SMN probe is used at a final concentration of 0.15 μM. GAPDH primers are used at final concentrations of 0.1 μM and the probe at 0.075 μM. […]
The increase of SMN2 FL and decrease in SMN2 Δ7 mRNA relative to those in cells treated with vehicle control are determined from real-time PCR data using a modified ΔΔCt method (as described in Livak and Schmittgen, Methods, 2001, 25:402-8). The amplification efficiency (E) is calculated from the slope of the amplification curve for SMN2 FL, SMN2 Δ7, and GAPDH individually. The abundances of SMN2 FL, SMN2 Δ7, and GAPDH are then calculated as (1+E)^−Ct, where Ct is the threshold value for each amplicon. […]

As to `Cc1ccc2nc(-c3cc4ccc(N5CCN(C)CC5)nc4oc3=O)cn2c1` [Cpd 27, 3-(6-methylimidazo[1,2-a]pyridin-2-yl)-7-(4-methylpiperazin-1-yl)-2H-pyrano[2,3-b]pyridin-2-one], the “SMN2 FL mRNA relative to vehicle” value is “progressively more SMN2 FL mRNA” and the “SMN2 Δ7 mRNA relative to vehicle” value is on record as “less SMN2 Δ7 mRNA”.

With `CN1CCN(c2ccc3cc(-c4nc5c(Cl)cccc5s4)c(=O)oc3n2)CC1` [Cpd 5, 3-(4-chloro-1,3-benzothiazol-2-yl)-7-(4-methylpiperazin-1-yl)-2H-pyrano[2,3-b]pyridin-2-one], the “SMN2 FL mRNA relative to vehicle” value is recorded as “progressively more SMN2 FL mRNA” and the “SMN2 Δ7 mRNA relative to vehicle” value is recorded as “less SMN2 Δ7 mRNA”.
